Assay results taken from patent publication US5614192A, “T cell receptor peptides as therapeutics for immune-related disease” (Connective Therapeutics, Inc., priority 1993, dated 1997).
Ends that are not written are not given here.

Tests used:
[1] = tested on: LN cells and T cell lines; test: Proliferation of LN cells and lines from rats protected by transfer of TCR Vβ8 peptide-specific T cells (Table 15); format: cell-based, rat
Protocol: ^1 Lymph node (LN) cells were collected 20 days after simultaneous
^2 LN cells were tested directly (NL column).
^3 T cell lines were selected from these LN cells by culture with TCR

[2] = tested on: popliteal LN cells; test: Proliferation of LN cells after EAE induction and TCR peptide treatment (Table 23); format: cell-based, Lewis rats
Protocol: The proliferative responses and specificity of T cells in the draining LN (popliteal) of rats treated with TCR Vβ8(39-59) peptide for EAE on day 13 after disease induction were examined (Table 23). On day 0, Lewis rats received an EAE-inducing regimen of GP-BP+CFA SC into their hind footpads. […] On day 20, about 7 days after onset of EAE, popliteal LNs were removed and T cell proliferative activity in response to the indicated antigens or mitogens were tested directly.
Results are shown as net ^3 Hthymidine incorporation of 5 ×

[3] = A. TCR Vβ8 peptide-specific T cell transfer

DMGHGLRLIHYSYDVNSTEKG [TCR Vβ8(39-59), 21-amino acid CDR2 peptide of rat TCR Vβ8]
Proliferation, GPBP Selected Line [1, 3]: 6 cpm × 10^-3
Proliferation, TCR Peptide Selected Line [1, 3]: 52 cpm × 10^-3
Proliferation, LN ([1]; A. rats given 3 × 10^7 TCR Vβ8 peptide-specific T cells + GPBP/CFA, LN cells day 20): 90 cpm × 10^-3
Proliferation, GPBP Selected Line ([1]; B. Saline + GPBP/CFA): 6 cpm × 10^-3
Proliferation, LN ([1]; B. Saline + GPBP/CFA): 8 cpm × 10^-3
T Cell Proliferation ([2]; LN cells day 20 of Control rats (saline day 13)): 31 cpm × 10^-3
T Cell Proliferation ([2]; LN cells of rats given TCR Vβ 8(39-59) 50 μg ID day 13): 30 cpm × 10^-3
T Cell Proliferation ([2]; LN cells of rats given TCR Vβ 8(39-59) 100 μg SC (in CFA) day 13): 39 cpm × 10^-3
